From PMC10432207 (Heliyon, 2023)
In brackets after ≈: the same amount, converted by molar mass.

Target: Hyalomma scupense acetylcholinesterase (AChE)
Assay: Ellman assay, absorbance at […] nm
Type: biochemical
Details: acetylthiocholine iodide, DTNB, 10 min, 37 °C

Compound: C=CCc1ccc(O)c(OC)c1 [eugenol]
- IC50: 178 µg/mL (≈ 1080 µM)

Compound: COc1ccc2c3c1O[C@H]1C[C@@H](O)C=C[C@@]31CCN(C)C2 [galantamine]
- IC50 (positive control): 97 µg/mL (≈ 338 µM)
